This note sets out measurements from patent US4468511A, “C-20- And C-23-Modified macrolide derivatives” (Eli Lilly and Company, priority 1983, dated 1984).

In brackets after ≈: the same amount, converted by molar mass. Read-outs that look alike come from different tables or passages of the source. Some results are limits rather than exact numbers.

Assay type in all cases: cell-based
In test [1] the test system is Staphylococcus aureus S13E. The experiment in a line: microbe, parasite or virus in culture. As to the method:
(§1) The MIC's in Table II were determined by standard agar-dilution assays. The MIC's in Table III were obtained using a conventional broth-dilution microtiter test.

Test [2] relates to Staphylococcus epidermidis EPI1. Put plainly: microbe, parasite or virus in culture. The settings on record: Staphylococcus epidermidis, EPI1. How it is done: as §1
The test system of test [3] is Pasteurella multocida 60A. Put plainly: MIC, conventional broth-dilution microtiter test. The settings on record: broth-dilution microtiter; Pasteurella multocida 60A, Avian isolate; read-out: MIC. As to the method: (§2) Certain of the derivatives are active against some gram-negative bacteria, such as Pasteurella species. The MIC's in Table II were determined by standard agar-dilution assays. The MIC's in Table III were obtained using a conventional broth-dilution microtiter test.

For test [4], the system named is Pasteurella multocida 17E. The experiment in a line: MIC, conventional broth-dilution microtiter test. Particulars: broth-dilution microtiter; Pasteurella multocida 17E, Bovine isolate; read-out: MIC. As to the method: as §2
Test [5] relates to Streptococcus sp. 80. Put plainly: MIC, conventional broth-dilution microtiter test. Particulars: broth-dilution microtiter; Streptococcus sp. 80; read-out: MIC. As to the method:
as §2

Test [6] concerns Pasteurella hemolytica 22C. Put plainly: MIC, conventional broth-dilution microtiter test. The settings on record: Pasteurella, 22C. How it is done: as §2
Test [7] has as its system Mycoplasma gallisepticum. The experiment in a line: MIC, conventional broth-dilution microtiter test. The settings on record: Mycoplasmoides gallisepticum. How it is done:
as §2

In test [8] the test system is Staphylococcus aureus. The experiment in a line: MIC, conventional broth-dilution microtiter test. As to the method:
as §2

Test [9] has as its system Pasteurella multocida 22A. Put plainly: MIC, conventional broth-dilution microtiter test. Particulars: broth-dilution microtiter; Pasteurella multocida 22A; read-out: MIC. As to the method: as §2
Test [10] relates to Mycoplasma hyorhinis. The experiment in a line: MIC, conventional broth-dilution microtiter test. Particulars: Mycoplasma. How it is done: as §2
Test [11] has as its system Mycoplasma gallisepticum 41313. The experiment in a line: MIC, conventional broth-dilution microtiter test. The settings on record: Mycoplasmoides gallisepticum; broth-dilution microtiter; Mycoplasma gallisepticum 41313, Resistant strain; read-out: MIC. As to the method:
as §2

In test [12] the test system is Mycoplasma gallisepticum 34159. The experiment in a line: MIC, conventional broth-dilution microtiter test. Particulars: Mycoplasmoides gallisepticum; broth-dilution microtiter; Mycoplasma gallisepticum 34159, Resistant strain; read-out: MIC. How it is done: as §2
Test [13] deals with Pasteurella multocida 40G. The experiment in a line: MIC, conventional broth-dilution microtiter test. The settings on record: broth-dilution microtiter; Pasteurella multocida 40G; read-out: MIC. How it is done: as §2
In test [14] the test system is Pasteurella hemolytica 41D. The experiment in a line: MIC, conventional broth-dilution microtiter test. Particulars: Pasteurella, 41D. How it is done: as §2
The test system of test [15] is Pasteurella hemolytica 23C. Put plainly: MIC, conventional broth-dilution microtiter test. The settings on record: Pasteurella, 23C. As to the method: as §2
The subject of test [16] is Pasteurella multocida 68C. Put plainly: MIC, conventional broth-dilution microtiter test. The settings on record: broth-dilution microtiter; Pasteurella multocida 68C; read-out: MIC. How it is done:
as §2

Test [17] has as its system Klebsiella pneumoniae KAE. Put plainly: MIC, standard agar-dilution assay. The settings on record: agar-dilution; Klebsiella pneumoniae KAE; read-out: MIC. How it is done: as §2
Test [18] deals with Escherichia coli TEM. The experiment in a line: MIC, standard agar-dilution assay. Particulars: agar-dilution; Escherichia coli TEM; read-out: MIC. As to the method: as §2
Test [19] deals with Streptococcus pyogenes 9960. Put plainly: MIC, standard agar-dilution assay. As to the method:
as §2

In test [20] the test system is Staphylococcus aureus V41. Put plainly: MIC, standard agar-dilution assay. Particulars: Staphylococcus aureus, V41. As to the method:
as §2

The test system of test [21] is Streptococcus pneumoniae Park I. The experiment in a line: MIC, standard agar-dilution assay. Particulars: Streptococcus pneumoniae. As to the method:
as §2

Test [22] concerns Klebsiella pneumoniae X26. Put plainly: MIC, standard agar-dilution assay. As to the method: as §2
The subject of test [23] is Staphylococcus aureus X1.1. Put plainly: MIC, standard agar-dilution assay. The settings on record: Staphylococcus aureus, X1.1. As to the method: as §2
Test [24] deals with Streptococcus pyogenes C203. Put plainly: MIC, standard agar-dilution assay. How it is done:
as §2

Test [25] concerns Escherichia coli EC14. The experiment in a line: MIC, standard agar-dilution assay. As to the method:
as §2

Test [26] relates to Streptococcus Group D X66. The experiment in a line: MIC, standard agar-dilution assay. As to the method: as §2
For test [27], the system named is Staphylococcus aureus X400. The experiment in a line: MIC, standard agar-dilution assay. How it is done: as §1
For test [28], the system named is Staphylococcus epidermidis EPI2. The experiment in a line: MIC, standard agar-dilution assay. The settings on record: Staphylococcus epidermidis, EPI2. As to the method:
as §1

The test system of test [29] is Haemophilus influenzae 76. The experiment in a line: MIC, standard agar-dilution assay. How it is done: as §1
Test [30] deals with Haemophilus influenzae C.L. The experiment in a line: MIC, standard agar-dilution assay. As to the method: as §1
[31] abbreviates: agar-dilution, Streptococcus 9960, read-out: MIC.
The mark [32] stands for this setting: agar-dilution, Escherichia coli EC14, read-out: MIC.

Regarding `CCC1CC(C)C(=O)C=CC(C)=CC(COC(C)=O)C(CC)OC(=O)CC(O)C(C)C1OC1OC(C)C(OC(C)=O)C(N(C)C)C1OC(C)=O` (centres unmarked) [Compound 40, 2',4',23-Tri-O-acetyl-20-deoxy-20-dihydro-OMT], the MIC in test [1] was 4 µg/mL (≈ 5.63 µM); in test [2] it was 4 µg/mL (≈ 5.63 µM); in test [3], 12.5 µg/mL (≈ 17.6 µM); in test [4], 25 µg/mL (≈ 35.2 µM); in test [5] it was 12.5 µg/mL (≈ 17.6 µM); in test [6], 50 µg/mL (≈ 70.4 µM). Further, the MIC in test [7] was 6.25 µg/mL (≈ 8.8 µM); in test [8] it was 6.25 µg/mL (≈ 8.8 µM); in [9] it was 25 µg/mL (≈ 35.2 µM); in [10] it was 50 µg/mL (≈ 70.4 µM); in test [11], more than 50 µg/mL; in test [12], more than 50 µg/mL. Also, the MIC is 25 µg/mL (≈ 35.2 µM) in test [13]; 50 µg/mL (≈ 70.4 µM) in [14]; 50 µg/mL (≈ 70.4 µM) in [15]; 12.5 µg/mL (≈ 17.6 µM) in [16]; more than 128 µg/mL in [17]; more than 128 µg/mL in test [18]. Further, the MIC in test [19] (setting [31]) was found to be 8 µg/mL (≈ 11.3 µM); in test [20] it was 4 µg/mL (≈ 5.63 µM); in test [21], 4 µg/mL (≈ 5.63 µM); in [22] (agar-dilution, Klebsiella pneumoniae X26, read-out: MIC), 16 µg/mL (≈ 22.5 µM); in [23], 4 µg/mL (≈ 5.63 µM); in [24] (agar-dilution, Streptococcus pyogenes C203, read-out: MIC), 16 µg/mL (≈ 22.5 µM). Further, the MIC in test [25] (setting [32]) was more than 128 µg/mL; in [26] (agar-dilution, Streptococcus Group D X66, read-out: MIC), 8 µg/mL (≈ 11.3 µM); in test [27] (agar-dilution, Staphylococcus aureus X400, Methicillin-resistant strain, read-out: MIC) it was 16 µg/mL (≈ 22.5 µM); in test [28], 4 µg/mL (≈ 5.63 µM).
For `CCC1OC(=O)CC(O)C(C)C(OC2OC(C)C(O)C(N(C)C)C2O)C(CCN(c2ccccc2)c2ccccc2)CC(C)C(=O)C=CC(C)=CC1CO` (centres unmarked) [Compound 56, 20-Diphenylamino-20-deoxy-20-dihydro-OMT], the MIC in test [1] was 2 µg/mL (≈ 2.66 µM); in [2], 2 µg/mL (≈ 2.66 µM); in test [17], more than 128 µg/mL; in test [18], more than 128 µg/mL; in test [19] (9960), 8 µg/mL (≈ 10.7 µM); in [20] it was 2 µg/mL (≈ 2.66 µM). Also, the MIC is 1 µg/mL (≈ 1.33 µM) in test [21]; 4 µg/mL (≈ 5.33 µM) in test [23]; 2 µg/mL (≈ 2.66 µM) in test [24] (Streptococcus pyogenes, C203); more than 128 µg/mL in test [25] (setting [32]); 4 µg/mL (≈ 5.33 µM) in test [26]; 16 µg/mL (≈ 21.3 µM) in test [29] (Haemophilus influenzae, 76). Also, the MIC came out at 4 µg/mL (≈ 5.33 µM) in test [27] (Staphylococcus aureus, X400); 1 µg/mL (≈ 1.33 µM) in test [28]; 32 µg/mL (≈ 42.6 µM) in test [30] (Haemophilus influenzae).
`CCC1OC(=O)CC(O)C(C)C(OC2OC(C)C(O)C(N(C)C)C2O)C(CCO)CC(C)C(=O)C=CC(C)=CC1COC(=O)CCc1ccccc1` (centres unmarked) [Compound 52, 20-Dihydro-23-O-phenylpropionyl-OMT]: the MIC in test [1] was 0.5 µg/mL (≈ 0.683 µM); in [2], 0.5 µg/mL (≈ 0.683 µM); in [17] it was more than 128 µg/mL; in test [18], 8 µg/mL (≈ 10.9 µM); in test [19] (setting [31]), 2 µg/mL (≈ 2.73 µM); in test [20], 0.5 µg/mL (≈ 0.683 µM). Also, the MIC in test [21] was found to be 0.25 µg/mL (≈ 0.342 µM); in test [22] (Klebsiella pneumoniae, X26) it was 4 µg/mL (≈ 5.47 µM); in test [23] it was 0.5 µg/mL (≈ 0.683 µM); in [24] (Streptococcus pyogenes, C203), 0.25 µg/mL (≈ 0.342 µM); in test [25] (Escherichia coli, EC14) it was 64 µg/mL (≈ 87.4 µM); in test [26] it was 1 µg/mL (≈ 1.37 µM). Further, the MIC in [29] (agar-dilution, Haemophilus influenzae 76, Ampicillin-resistant strain, read-out: MIC) was found to be 8 µg/mL (≈ 10.9 µM); in [27] (Staphylococcus aureus, X400), 1 µg/mL (≈ 1.37 µM); in test [28], 0.5 µg/mL (≈ 0.683 µM); in test [30] (agar-dilution, Haemophilus influenzae C.L., Ampicillin-sensitive strain, read-out: MIC), 8 µg/mL (≈ 10.9 µM).
